Columns and labels:
Details in all cases: exposure time: 72 h
[1] = tested on: E21 (patient-derived glioblastoma stem cells of mesenchymal subtype); assay: phenotypic distance (Euclidean, principal components) from DMSO controls (arbitrary units); higher = stronger morphological change
[2] = tested on: E31 (patient-derived glioblastoma stem cells of proneural subtype); assay: as above
[3] = tested on: FT3469 (normal neural stem cell line); assay: as above
[4] = tested on: E13 (patient-derived glioblastoma stem cells of classical subtype); assay: as above
[5] = tested on: E34 (patient-derived glioblastoma stem cells of proneural subtype); assay: as above
[6] = tested on: E57 (patient-derived glioblastoma stem cells of mesenchymal subtype); assay: as above
[7] = tested on: E28 (patient-derived glioblastoma stem cells of classical subtype); assay: as above
[8] = tested on: E21; assay: surviving fraction (nuclei count normalised to DMSO); higher = more cells surviving (less toxic)
[9] = tested on: E31; assay: as above
[10] = tested on: FT3469; assay: as above
[11] = tested on: E13; assay: as above
[12] = tested on: E34; assay: as above
[13] = tested on: E57; assay: as above
[14] = tested on: E28; assay: as above
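For phenotypic distance (Euclidean, principal components) from DMSO controls in this document: cell Painting imaging in 384-well plates, CellProfiler features reduced to at least 20 principal components, Euclidean distance versus same-plate DMSO vehicle wells (0.1% v/v), median over six images per well.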
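For surviving fraction (nuclei count normalised to DMSO) in this document: nuclei counted by high-content imaging of Hoechst-stained cells in laminin-coated 384-well plates, relative to 0.1% DMSO vehicle wells, with staurosporine as cell-death control.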

`Cc1cc(CN)cc(C)c1NC(=O)c1ccc(-c2cc(Cl)ccc2Cl)o1` showed a phenotypic distance ([1]; 3000 nM) of 0.968, a phenotypic distance ([2]; 3000 nM) of 1.86 and a phenotypic distance ([3]; 3000 nM) of 0.784. For the same molecule, the phenotypic distance ([4]; 3000 nM) was 1.34, the phenotypic distance ([5]; 3000 nM) was 0.825 and the phenotypic distance ([6]; 3000 nM) was 1.29. The phenotypic distance ([7]; 3000 nM) was 0.815, the surviving fraction ([8]; 3000 nM) was 0.862 and the surviving fraction ([9]; 3000 nM) was 0.856. For the same molecule, the surviving fraction ([10]; 3000 nM) was 0.883, the surviving fraction ([11]; 3000 nM) was 0.865 and the surviving fraction ([12]; 3000 nM) was 0.829. The surviving fraction ([13]; 3000 nM) was 0.964 and the surviving fraction ([14]; 3000 nM) was 0.919.

With `O=C(O)c1ccc(-c2c[nH]c3ncc(-c4ccccc4)cc23)cc1C1CCCC1` the phenotypic distance ([1]; 4.11523 nM) was 0.656, the phenotypic distance ([1]; 12.34567901 nM) was 0.914 and the phenotypic distance ([1]; 37.037 nM) was 0.757. For the same molecule, the phenotypic distance ([1]; 111.1111111 nM) was 0.832, the phenotypic distance ([1]; 333.333 nM) was 0.828 and the phenotypic distance ([1]; 1000 nM) was 1.75. For the same molecule, the phenotypic distance ([1]; 3000 nM) was 4.49, the phenotypic distance ([2]; 4.11523 nM) was 0.443 and the phenotypic distance ([2]; 12.34567901 nM) was 0.638. It also gave a phenotypic distance ([2]; 37.037 nM) of 0.948, a phenotypic distance ([2]; 111.1111111 nM) of 0.662 and a phenotypic distance ([2]; 333.333 nM) of 1.08. The phenotypic distance ([2]; 1000 nM) was 1.15, the phenotypic distance ([2]; 3000 nM) was 1.91 and the phenotypic distance ([3]; 4.11523 nM) was 0.839. The phenotypic distance ([3]; 12.34567901 nM) was 1.18, the phenotypic distance ([3]; 37.037 nM) was 0.627 and the phenotypic distance ([3]; 111.1111111 nM) was 1.11. The phenotypic distance ([3]; 333.333 nM) was 0.969, the phenotypic distance ([3]; 1000 nM) was 1.71 and the phenotypic distance ([3]; 3000 nM) was 2.49. The phenotypic distance ([4]; 4.11523 nM) was 3.86, the phenotypic distance ([4]; 12.34567901 nM) was 2.38 and the phenotypic distance ([4]; 37.037 nM) was 0.747. It also gave a phenotypic distance ([4]; 111.1111111 nM) of 0.749, a phenotypic distance ([4]; 333.333 nM) of 1 and a phenotypic distance ([4]; 1000 nM) of 2.77. For the same molecule, the phenotypic distance ([4]; 3000 nM) was 5.39, the phenotypic distance ([5]; 4.11523 nM) was 1.13 and the phenotypic distance ([5]; 12.34567901 nM) was 0.775. It also gave a phenotypic distance ([5]; 37.037 nM) of 0.829, a phenotypic distance ([5]; 111.1111111 nM) of 1.03 and a phenotypic distance ([5]; 333.333 nM) of 1.12. It also gave a phenotypic distance ([5]; 1000 nM) of 2.9, a phenotypic distance ([5]; 3000 nM) of 4.8 and a phenotypic distance ([6]; 4.11523 nM) of 0.657. The phenotypic distance ([6]; 12.34567901 nM) was 0.719, the phenotypic distance ([6]; 37.037 nM) was 0.687 and the phenotypic distance ([6]; 111.1111111 nM) was 1.04. The phenotypic distance ([6]; 333.333 nM) was 0.598, the phenotypic distance ([6]; 1000 nM) was 1.78 and the phenotypic distance ([6]; 3000 nM) was 4.38. For the same molecule, the phenotypic distance ([7]; 4.11523 nM) was 0.635, the phenotypic distance ([7]; 12.34567901 nM) was 0.785 and the phenotypic distance ([7]; 37.037 nM) was 0.418. For the same molecule, the phenotypic distance ([7]; 111.1111111 nM) was 0.61, the phenotypic distance ([7]; 333.333 nM) was 0.687 and the phenotypic distance ([7]; 1000 nM) was 1.26. The phenotypic distance ([7]; 3000 nM) was 2.4, the surviving fraction ([8]; 4.11523 nM) was 0.933 and the surviving fraction ([8]; 12.34567901 nM) was 0.832. The surviving fraction ([8]; 37.037 nM) was 0.918, the surviving fraction ([8]; 111.1111111 nM) was 0.783 and the surviving fraction ([8]; 333.333 nM) was 0.803. It also gave a surviving fraction ([8]; 1000 nM) of 0.681, a surviving fraction ([8]; 3000 nM) of 0.52 and a surviving fraction ([9]; 4.11523 nM) of 1.04. It also gave a surviving fraction ([9]; 12.34567901 nM) of 1.01, a surviving fraction ([9]; 37.037 nM) of 0.885 and a surviving fraction ([9]; 111.1111111 nM) of 1.14. For the same molecule, the surviving fraction ([9]; 333.333 nM) was 0.798, the surviving fraction ([9]; 1000 nM) was 1.04 and the surviving fraction ([9]; 3000 nM) was 0.688. For the same molecule, the surviving fraction ([10]; 4.11523 nM) was 0.822, the surviving fraction ([10]; 12.34567901 nM) was 0.943 and the surviving fraction ([10]; 37.037 nM) was 0.972. For the same molecule, the surviving fraction ([10]; 111.1111111 nM) was 0.987, the surviving fraction ([10]; 333.333 nM) was 0.813 and the surviving fraction ([10]; 1000 nM) was 0.996. The surviving fraction ([10]; 3000 nM) was 0.766, the surviving fraction ([11]; 4.11523 nM) was 0.996 and the surviving fraction ([11]; 12.34567901 nM) was 0.826. It also gave a surviving fraction ([11]; 37.037 nM) of 0.899, a surviving fraction ([11]; 111.1111111 nM) of 0.825 and a surviving fraction ([11]; 333.333 nM) of 0.72. It also gave a surviving fraction ([11]; 1000 nM) of 0.588, a surviving fraction ([11]; 3000 nM) of 0.413 and a surviving fraction ([12]; 4.11523 nM) of 0.913. For the same molecule, the surviving fraction ([12]; 12.34567901 nM) was 1.06, the surviving fraction ([12]; 37.037 nM) was 0.86 and the surviving fraction ([12]; 111.1111111 nM) was 0.909. It also gave a surviving fraction ([12]; 333.333 nM) of 0.805, a surviving fraction ([12]; 1000 nM) of 0.714 and a surviving fraction ([12]; 3000 nM) of 0.527. For the same molecule, the surviving fraction ([13]; 4.11523 nM) was 0.932, the surviving fraction ([13]; 12.34567901 nM) was 0.905 and the surviving fraction ([13]; 37.037 nM) was 0.923. It also gave a surviving fraction ([13]; 111.1111111 nM) of 0.916, a surviving fraction ([13]; 333.333 nM) of 0.835 and a surviving fraction ([13]; 1000 nM) of 0.6. It also gave a surviving fraction ([13]; 3000 nM) of 0.35, a surviving fraction ([14]; 4.11523 nM) of 0.956 and a surviving fraction ([14]; 12.34567901 nM) of 0.911. The surviving fraction ([14]; 37.037 nM) was 0.873, the surviving fraction ([14]; 111.1111111 nM) was 1.01 and the surviving fraction ([14]; 333.333 nM) was 0.807. For the same molecule, the surviving fraction ([14]; 1000 nM) was 0.755 and the surviving fraction ([14]; 3000 nM) was 0.51.
